Results published in US11787780B2 (CORCEPT THERAPEUTICS INCORPORATED, priority 2020, dated 2023).

These compounds were tested against glucocorticoid receptor (GR) recombinant ligand binding domain (LBD) (Homo sapiens (Human), UniProt P04150) (assay: GR binding fluorescence polarisation (FP) assay). Conditions: displacement of fluorescently tagged ligand.
glucocorticoid receptor (GR) recombinant ligand binding domain (LBD), sequence (P04150 524-758): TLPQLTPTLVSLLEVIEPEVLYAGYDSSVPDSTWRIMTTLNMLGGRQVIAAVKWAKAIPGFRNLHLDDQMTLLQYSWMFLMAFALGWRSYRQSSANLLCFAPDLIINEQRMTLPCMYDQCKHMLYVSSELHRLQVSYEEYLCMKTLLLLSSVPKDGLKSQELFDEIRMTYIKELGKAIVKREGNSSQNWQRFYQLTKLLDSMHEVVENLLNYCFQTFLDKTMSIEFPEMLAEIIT
Description: Binding of test compounds to the glucocorticoid receptor (GR) is determined using a fluorescence polarisation (FP) assay utilising a recombinant ligand binding domain (LBD) of GR. The test compounds are assessed by their ability to displace a fluorescently tagged ligand and detection of the resulting decrease in fluorescence polarisation.
“1-(4-fluorophenyl)-5-(4-(methoxymethyl)-1-((1-propyl-1H-pyrazol-4-yl)sulfonyl)piperidin-4-yl)-1H-indazole [Example 23]” showed an IC50 of 1300 nM.
Work on `C[C@@H]1CN(C(=O)c2ccccc2)CCN1c1ccc2c(cnn2-c2ccc(F)cc2)c1` [Example 2, (R)-(4-(1-(4-fluorophenyl)-1H-indazol-5-yl)-3-methylpiperazin-1-yl)(phenyl)methanone] yielded an IC50 of 1940 nM.
Work on `CCCn1cc(S(=O)(=O)N2CCN(c3ccc4c(cnn4-c4ccc(F)cc4)c3)C3(CC3)C2)cn1` [Example 3, 1-(4-fluorophenyl)-5-(7-((1-propyl-1H-pyrazol-4-yl)sulfonyl)-4,7-diazaspiro[2.5]octan-4-yl)-1H-indazole] yielded an IC50 of 206 nM.
`CCCn1cc(S(=O)(=O)N[C@H]2CCN(c3cc4cnn(-c5ccc(F)cc5)c4cc3C)C2)cn1` [Example 4, (S)—N-(1-(1-(4-fluorophenyl)-6-methyl-1H-indazol-5-yl)pyrrolidin-3-yl)-1-propyl-1H-pyrazole-4-sulfonamide] gave an IC50 of 2 nM.
In the case of `CCCn1cc(S(=O)(=O)N(C)[C@H]2CCN(c3cc4cnn(-c5ccc(F)cc5)c4cc3C)C2)cn1` [Example 5, (S)—N-(1-(1-(4-fluorophenyl)-6-methyl-1H-indazol-5-yl)pyrrolidin-3-yl)-N-methyl-1-propyl-1H-pyrazole-4-sulfonamide], the IC50 is reported as 126 nM.
In the case of `Cc1cc2c(cnn2-c2ccc(F)cc2)cc1N1CCN(S(C)(=O)=O)CC1=O` [Example 7, 1-(1-(4-fluorophenyl)-6-methyl-1H-indazol-5-yl)-4-(methylsulfonyl)piperazin-2-one], the IC50 is reported as 6110 nM.
`CCCn1cc(S(=O)(=O)N2CC[C@@H](c3ccc4c(cnn4-c4ccc(F)cc4)c3)C[C@H]2C)cn1` [Example 9, 1-(4-fluorophenyl)-5-((2R,4R)-2-methyl-1-((1-propyl-1H-pyrazol-4-yl)sulfonyl)piperidin-4-yl)-1H-indazole] gave an IC50 of 527 nM.
In the case of `CCCn1cc(S(=O)(=O)N2CC=C(c3cc4cnn(-c5ccc(F)cc5)c4cc3C)C[C@H]2C)cn1` [Example 11, (R)-1-(4-fluorophenyl)-6-methyl-5-(2-methyl-1-((1-propyl-1H-pyrazol-4-yl)sulfonyl)-1,2,3,6-tetrahydropyridin-4-yl)-1H-indazole], the IC50 is reported as 258 nM.
Compound `CCCn1cc(S(=O)(=O)N2CC[C@@H](c3cc4cnn(-c5ccc(F)cc5)c4cc3C)C[C@H]2C)cn1` [Example 12, 1-(4-fluorophenyl)-6-methyl-5-((2R,4R)-2-methyl-1-((1-propyl-1H-pyrazol-4-yl)sulfonyl)piperidin-4-yl)-1H-indazole] has an IC50 of 236 nM.
`CCCn1cc(S(=O)(=O)N2CC[C@H](c3cc4cnn(-c5ccc(F)cc5)c4cc3C)C[C@H]2C)cn1` [Example 13, 1-(4-fluorophenyl)-6-methyl-5-((2R,4S)-2-methyl-1-((1-propyl-1H-pyrazol-4-yl)sulfonyl)piperidin-4-yl)-1H-indazole] was tested, and the IC50 was 82 nM.
`O=S(=O)(c1cnn(CC2CC2)c1)N1CCN(c2ccc3c(cnn3-c3ccc(F)cc3)c2)C[C@H]1CO` [Example 14, (S)-(1-((1-(cyclopropylmethyl)-1H-pyrazol-4-yl)sulfonyl)-4-(1-(4-fluorophenyl)-1H-indazol-5-yl)piperazin-2-yl)methanol] was tested, and the IC50 was 357 nM.
In the case of `COC[C@@H]1CN(c2ccc3c(cnn3-c3ccc(F)cc3)c2)CCN1S(=O)(=O)c1cnn(CC2CC2)c1` [Example 15, (S)-5-(4-((1-(cyclopropylmethyl)-1H-pyrazol-4-yl)sulfonyl)-3-(methoxymethyl)piperazin-1-yl)-1-(4-fluorophenyl)-1H-indazole], the IC50 is reported as 455 nM.
`CCCn1cc(S(=O)(=O)N2CCC(C(=O)OCC)(c3ccc4c(cnn4-c4ccc(F)cc4)c3)CC2)cn1` [Example 21, Ethyl 4-(1-(4-fluorophenyl)-1H-indazol-5-yl)-1-((1-propyl-1H-pyrazol-4-yl)sulfonyl)piperidine-4-carboxylate] showed an IC50 of 884 nM.
